Measured values from PubChem BioAssay (NCI).
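Tested at 5 concentrations; 48 h exposure; 96-well plates; endpoints linearly interpolated, else capped at highest concentration. Abbreviation: GI50, concentration required for 50% inhibition of growth. At the TGI there is no net growth.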

Assays:
Test in all cases: DTP human tumour cell line panel, 48 h
BT-549 breast = system: BT-549 breast
HCC-2998 colon = system: HCC-2998 colon
HOP-62 NSCLC = system: HOP-62 NSCLC
HT29 colon = system: HT29 colon
LOX IMVI melanoma = system: LOX IMVI melanoma
NCI-H23 lung = system: NCI-H23 lung
NCI/ADR-RES ovarian = system: NCI/ADR-RES ovarian
T-47D breast = system: T-47D breast
RPMI-8226 leukemia = system: RPMI-8226 leukemia
SK-MEL-2 melanoma = system: SK-MEL-2 melanoma

| SMILES | TGI (BT-549 breast) [µM] | TGI (HCC-2998 colon) [µM] | TGI (HOP-62 NSCLC) [µM] | TGI (HT29 colon) [µM] | TGI (LOX IMVI melanoma) [µM] | TGI (NCI-H23 lung) [µM] | TGI (NCI/ADR-RES ovarian) [µM] | TGI (T-47D breast) [µM] | TGI (RPMI-8226 leukemia) [µM] | TGI (SK-MEL-2 melanoma) [µM] | GI50 (BT-549 breast) [µM] | GI50 (HT29 colon) [µM] | GI50 (LOX IMVI melanoma) [µM] | GI50 (RPMI-8226 leukemia) [µM] | GI50 (SK-MEL-2 melanoma) [µM] | GI50 (T-47D breast) [µM] |
| --- | --- | --- | --- | --- | --- | --- | --- | --- | --- | --- | --- | --- | --- | --- | --- | --- |
| CSc1c(C#N)c(N)n2c1C(=O)N(c1ccccc1)C2=S | > 100 | > 100 | > 100 | > 100 | > 100 | > 100 | > 100 | > 100 |  |  |  |  |  |  |  |  |
| N#CCCN(CCC#N)c1ccc(/C=C2\N=C(c3ccccc3)N(c3ccc(Cl)cc3)C2=O)cc1 | > 100 |  | > 100 | > 100 | > 100 |  | > 100 | > 100 | > 100 | > 100 |  |  |  |  |  |  |
| O=C(/C=C/c1ccsc1)c1ccsc1 |  | 35.6 | > 100 | 74.8 | 35.2 | 54.8 | > 100 | 92.2 | 47.2 | > 100 |  |  |  |  |  |  |
| C=CCNC(=S)/N=C/c1c(O)c2ccccc2oc1=O |  | > 100 |  | > 100 | > 100 | > 100 |  |  | > 100 | > 100 |  |  |  |  |  |  |
| CCN(CCO)CC1COc2ccccc2O1 (stereo not given) | > 100 | > 100 | > 100 | > 100 | > 100 | > 100 | > 100 | > 100 |  |  |  |  |  |  |  |  |
| O=[N+]([O-])/C(C(Cl)=C(Cl)Cl)=C(\Nc1cccc2cccnc12)SCc1ccccc1 | 35.6 | 36.7 | 33.6 | 48.5 |  | 32.7 | 51.7 | 40.2 | > 100 | 41 |  |  |  |  |  |  |
| Cc1c(C(=O)CSc2nc3ccccc3c(=O)n2-c2ccccc2)c(=O)n(-c2ccccc2)n1C |  | > 100 | 69.1 | > 100 | > 100 | > 100 |  |  | > 100 | > 100 |  |  |  |  |  |  |
| CO[C@]12CC(=O)C3(C(C[C@H]4CC5CC=C6C[C@@H](OC(C)=O)CC[C@]6(OC(C)=O)C5C[C@@]43C)C1)C1C[C@H]3[C@@H]4CC=C5C[C@@H](OC(C)=O)CC[C@]5(OC(C)=O)[C@H]4CC[C@]3(C)C12 (stereo not given in full) |  | 41.6 | 37.9 | 29.5 | 53.4 | 39 | 51.3 | 33.4 | > 100 | 41.1 |  |  |  |  |  |  |
| NNC(=O)c1ccc[n+](CCc2ccccc2)c1 | > 100 | > 100 | > 100 | > 100 | > 100 | > 100 | > 100 | > 100 | > 100 |  |  |  |  |  |  |  |
| CC(=O)N/N=C1\NC(=O)C[C@H]2[C@@H]3CC=C4C[C@@H](OC(C)=O)CC[C@]4(C)[C@H]3CC[C@]12C | 32.7 |  | 32.5 | > 100 | > 100 | > 100 | > 100 | > 100 | > 100 | > 100 |  |  |  |  |  |  |
| C=C[C@@H]1C(CO)=CCC2[C@H]1CCC1C(C)(C)C(=O)CC[C@]21C (stereo not given in full) |  | > 100 | > 100 | > 100 | > 100 | > 100 | > 100 | > 100 | > 100 | > 100 |  |  |  |  |  |  |
| Cc1nn(C(=O)Cc2ccccc2)c2c1C(c1ccc(O)cc1)SC(N)=N2 (stereo not given) | > 100 | > 100 | > 100 | > 100 | > 100 | > 100 |  | > 100 | > 100 |  |  |  |  |  |  |  |
| COc1cc([N+](=O)[O-])c(OC)cc1-c1nc2sc(Cl)cn2c1/C=N/Nc1ccccn1 | 38.7 |  |  | > 50 | > 50 |  |  | > 50 | > 50 | > 50 | 15.5 | > 50 | > 50 | 30.1 | > 50 | 20.6 |
| N=S(c1ccccc1)c1ccccc1[N+](=O)[O-] (stereo not given) |  | 33.4 | 52.6 | 38.7 | 28.2 | 35.2 |  |  | 54.6 | 67.7 |  |  |  |  |  |  |
| COc1ccc(CC(O)CN2CCOCC2)cc1 (stereo not given) | > 100 |  | > 100 | > 100 | > 100 | > 100 | > 100 | > 100 |  | > 100 |  |  |  |  |  |  |
| Cc1c(S(=O)(=O)/N=C(\N)Nc2ccc(Cl)cc2)sc2ccc(Cl)cc12 | 58 |  | 36.9 | 38.8 | 36.3 | 41.5 | 47.1 | > 100 | > 100 | 33.9 |  |  |  |  |  |  |
| Cc1ccccc1C(O)(c1nccn1C)c1nccn1C | > 100 | > 100 | > 100 | > 100 |  |  | > 100 | > 100 |  | > 100 |  |  |  |  |  |  |
| C1=CC2=CC=CC3c4nc5ccc6ccccc6c5nc4C(=C1)C23 (stereo not given) |  | > 100 | > 100 | > 100 | > 100 | > 100 | > 100 | > 100 | > 100 | > 100 |  |  |  |  |  |  |
| C=CCOC(=O)CC[N+]1=CCC(c2ccccc2)(c2ccccc2)O1 | > 100 | > 100 | > 100 | > 100 |  | > 100 |  | > 100 |  | > 100 |  |  |  |  |  |  |
| CCCCC1c2c([nH]c3ccccc23)C2C(=O)N(c3ccc(OC)cc3)C(=O)C2C1CCC (stereo not given) |  | > 10 | > 10 | 8.52 | > 10 | > 10 | 5.68 | > 10 | 8.99 | > 10 |  |  |  |  |  |  |
| COc1ccc(C2(CC(C)O)SCCCS2)cc1 (stereo not given) | > 100 | > 100 | > 100 | > 100 |  | > 100 | > 100 | > 100 | > 100 | > 100 |  |  |  |  |  |  |
| COCOc1ccc(Cn2c(=O)n(C)c(=O)c3c2ncn3C)cc1[N+](=O)[O-] |  | > 100 |  | > 100 | > 100 | > 100 |  |  | > 100 |  |  |  |  |  |  |  |
| c1ccc2c(c1)NC(C1OC3CCCN3C1C1Nc3ccccc3S1)S2 (stereo not given) | > 100 | > 100 | > 100 | > 100 |  | > 100 |  |  | 76.3 |  |  |  |  |  |  |  |
| O=C1CN2C(c3ccccc3)=NN(c3ccc([N+](=O)[O-])cc3)C2(c2ccccc2)c2cc(Cl)ccc2N1CC1CC1 (stereo not given) | > 100 | > 100 | > 100 | > 100 | > 100 | > 100 | > 100 |  | > 100 |  |  |  |  |  |  |  |
